pKi: −log10 of the molar value. Where two headings read alike, the source gives them in different places.
Tests used:
[1] = biological target: T1, human recombinant 5-HT2A receptor (Homo sapiens, UniProt P28223); experiment: Test Example 1-2: 5-HT2A receptor binding inhibition test ([3H]-Ketanserin; non-specific ligand Ketanserin)
T1 construct: expressed in transfected cells; host or cells: Jump-In HEK cells (membrane preparation)
Method in brief: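 Membranes expressing the receptor were incubated with [3H]-ketanserin and compound for 1.5 h at 25 °C, then filtered onto plates presoaked in 50 mmol/L Tris-HCl pH 7.4 and scintillation-counted. Non-specific binding was defined with 500 µmol/L unlabeled ketanserin. Ki was taken from dose-response curves, with Kd set for each membrane lot by Scatchard analysis.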

[2] = biological target: T2, human recombinant 5-HT2C receptor (Homo sapiens, UniProt P28335); experiment: Test Example 2-2: 5-HT2C receptor binding inhibition test ([3H]-Mesulergine; non-specific ligand Ketanserin); details: non-specific binding with 500 µmol/L Ketanserin, 37°C, 2 hours
T2 construct: expressed in transfected cells; host or cells: Jump-In HEK cells (membrane preparation)
T2 sequence (P28335 33-458): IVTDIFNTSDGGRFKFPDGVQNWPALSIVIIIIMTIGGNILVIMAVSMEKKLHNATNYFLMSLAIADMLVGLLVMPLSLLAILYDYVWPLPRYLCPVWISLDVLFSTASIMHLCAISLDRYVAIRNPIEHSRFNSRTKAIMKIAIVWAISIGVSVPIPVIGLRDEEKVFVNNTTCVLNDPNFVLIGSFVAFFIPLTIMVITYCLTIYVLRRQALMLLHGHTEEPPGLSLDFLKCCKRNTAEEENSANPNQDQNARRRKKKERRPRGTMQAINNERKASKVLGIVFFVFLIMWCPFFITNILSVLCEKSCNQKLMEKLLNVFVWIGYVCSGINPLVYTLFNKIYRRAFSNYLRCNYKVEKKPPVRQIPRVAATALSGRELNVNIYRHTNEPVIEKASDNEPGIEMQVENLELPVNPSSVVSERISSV
Protocol: The Kd value is calculated when the lot of the cell membrane is changed. 1 mmol/L non-specific binding calculating compound dissolved in DMSO or DMSO is previously dispensed to the microplate by 0.5 µL, and the cell membrane is diluted with an Assay buffer. The radioactive ligand solution is diluted step by step, and counts are checked with a liquid scintillator. The Assay buffer containing diluted cell membranes is dispensed by 50 µL/well into the microplate. The radioactive ligand solution is then dispensed by 50 µL/well into the microplate and the plate is sealed. The microplate is allowed to stand at 37°C for 2 hours. During this time, 50 mmol/L Tris-HCl (pH 7.4) is dispensed by 50 µL/well into the UniFilter plate and allowed to stand at 4°C for 1 hour or longer. Thereafter, filtration is performed with a Cell Harvester (PerkinElmer). The radioactive ligand solution is dispensed by 10 µL/well into empty wells of the UniFilter plate. After drying the UniFilter plate at room temperature, MicroScinti20 is dispensed by 50 µL/well into the UniFilter plate, and the plate is sealed. UniFilter plate is allowed to stand at room temperature overnight. The radioactivity of [^3H]-Mesulergine bound to the 5-HT2C receptor is measured using Microbeta2 (PerkinElmer) at a measurement time of 1 min/well. The Saturation curve is drawn from the measured value, and the Kd value is calculated from the slope of the Scatchard Plot.
A compound solution dissolved in DMSO is dispensed to a microplate by 0.5 µL, and a cell membrane and a hot ligand are each diluted with an Assay buffer. The Assay buffer containing diluted cell membrane is then dispensed by 50 µL/well into the microplate. The radioactive ligand solution is then dispensed by 50 µL/well into the microplate and the plate is sealed. The microplate is then allowed to stand at 37°C for 2 hours. During this time, 50 mmol/L Tris-HCl (pH 7.4) is dispensed by 50 µL/well into the UniFilter plate and allowed to stand at 4°C for 1 hour or longer. Thereafter, filtration is performed with a Cell Harvester (PerkinElmer). After drying the UniFilter plate at room temperature, MicroScinti20 is dispensed by 50 µL/well into the UniFilter plate, and the plate is sealed. UniFilter plate is allowed to stand at room temperature overnight. The radioactivity of [^3H]-Mesulergine bound to the 5-HT2C receptor is measured using Microbeta2 (PerkinElmer) at a measurement time of 1 min/well. Non-specific binding is calculated from the radioactivity of [^3H]-Mesulergine in the presence of 500 µmol/L Ketanserin of unlabeled ligand, and total binding is calculated from the radioactivity of [^3H]-Mesulergine in the absence of the compound of the present invention (Vehicle). Finally, the Ki value is calculated from the dose-response curve.
(The binding activity of the compound according to the present invention is calculated from the following binding inhibition rate (%).) Inhibition rate (%) = [1−(c−a)/(b−a)] × 100 [formula] • a; average cpm of non-specific binding • b; average cpm of total binding • c; cpm in the presence of the test compound
The compounds of the present invention were tested essentially as described above.

[3] = [3H]-Ketanserin, non-specific binding with 500 µmol/L Ketanserin, room temperature (25°C), 1.5 hours, read-out: h 5-HT2A Ki

T1 sequence (P28223 whole entry): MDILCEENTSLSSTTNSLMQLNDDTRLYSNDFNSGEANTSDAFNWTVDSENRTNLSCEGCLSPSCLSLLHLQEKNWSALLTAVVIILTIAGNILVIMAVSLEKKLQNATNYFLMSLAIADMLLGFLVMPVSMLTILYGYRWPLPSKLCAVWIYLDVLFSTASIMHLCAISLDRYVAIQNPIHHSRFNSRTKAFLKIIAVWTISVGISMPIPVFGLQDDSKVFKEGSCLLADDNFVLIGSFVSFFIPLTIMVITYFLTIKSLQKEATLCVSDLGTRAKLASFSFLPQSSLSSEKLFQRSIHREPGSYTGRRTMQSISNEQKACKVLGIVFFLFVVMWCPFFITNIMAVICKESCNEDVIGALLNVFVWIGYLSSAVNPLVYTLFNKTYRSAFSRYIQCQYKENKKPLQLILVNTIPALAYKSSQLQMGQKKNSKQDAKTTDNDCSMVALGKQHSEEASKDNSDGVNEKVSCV

With `CCn1ncc(C)c1-c1cc(Nc2ncc(C(F)(F)F)cc2F)ccc1OCCO` [Compound I-068] the pKi [1, 3] was 9.54 and the pKi [2] was 8.94.

Compound `Cn1ncc(Br)c1-c1cc(Nc2nc3cc(Cl)ccc3s2)ccc1OCCO` [Compound I-069] has a pKi [1, 3] of 9.43 and a pKi [2] of 9.44.

In the case of `Cn1ncc(Br)c1-c1cc(Nc2nc3ccc(F)cc3s2)ccc1OCCO` [Compound I-070], the pKi [1, 3] was 9.52 and the pKi [2] was 9.67.

For `Cn1ncc(Br)c1-c1cc(Nc2nc3c(Cl)cccc3s2)ccc1OCCO` [Compound I-071], the pKi [1, 3] was 9.42 and the pKi [2] was 8.71.

Compound `Cn1ncc(C#N)c1-c1cc(Nc2ncc(C(F)(F)F)cc2F)ncc1OCCO` [Compound I-072] has a pKi [1, 3] of 9.39 and a pKi [2] of 8.33.

With `Cn1ncc(Br)c1-c1nc(Nc2ccc(C(F)(F)F)cn2)ccc1OCCO` [Compound I-073] the pKi [1] was 9.74 and the pKi [2] was 9.03.

`Cc1cnn(C2CC2)c1-c1cc(Nc2ncc(C(F)(F)F)cc2F)ccc1OCCO` [Compound I-074] showed a pKi [1, 3] of 9.63 and a pKi [2] of 9.07.

`Cc1cnn(C)c1-c1cc(Nc2ccc(C(F)(F)F)cn2)ccc1OCCO` [Compound I-075] showed a pKi [1, 3] of 9.83 and a pKi [2] of 9.03.

In the case of `Cn1ncc(Br)c1-c1cc(Nc2nc3cnccc3s2)ccc1OCCO` [Compound I-076], the pKi [1, 3] was 9.68 and the pKi [2] was 8.52.

For `Cn1ncc(Br)c1-c1cc(Nc2nc3cc(F)ccc3[nH]2)ccc1OCCO` [Compound I-077], the pKi [1, 3] was 9.64 and the pKi [2] was 8.49.

With `Cn1ncc(Br)c1-c1cc(Nc2nc3cc(Cl)ccc3[nH]2)ccc1OCCO` [Compound I-078] the pKi [1, 3] was 9.58 and the pKi [2] was 8.96.

`COc1cnc(Nc2ccc(OCCO)c(-c3c(Br)cnn3C)c2)c(F)c1` [Compound I-079] showed a pKi [1, 3] of 9.53 and a pKi [2] of 9.20.

In the case of `Cn1ncc(Br)c1-c1cc(Nc2ccc(C(C)(F)F)cn2)ccc1OCCO` [Compound I-080], the pKi [1, 3] was 9.35 and the pKi [2] was 8.56.

In the case of `Cn1ncc(Br)c1-c1cc(Nc2ccc(C(F)(F)F)cn2)cnc1OCCO` [Compound I-081], the pKi [1, 3] was 9.69 and the pKi [2] was 9.34.

In the case of `Cc1cnn(C)c1-c1cc(Nc2ncc(C(F)(F)F)cc2F)cnc1OCCO` [Compound I-083], the pKi [1, 3] was 9.54 and the pKi [2] was 8.53.

In the case of `Cn1ncc(Br)c1-c1cc(Nc2nc3cc(Br)ccc3n2C)ccc1OCCO` [Compound I-084], the pKi [1, 3] was 9.35 and the pKi [2] was 9.53.

For `COc1ccc2nc(Nc3ccc(OCCO)c(-c4c(Br)cnn4C)c3)sc2c1` [Compound I-085], the pKi [1, 3] was 9.72 and the pKi [2] was 9.26.

For `Cn1ncc(F)c1-c1cc(Nc2ncc(Cl)cc2F)ccc1OCCO` [Compound I-086], the pKi [1, 3] was 9.69 and the pKi [2] was 8.05.

Work on `Cn1ncc(C#N)c1-c1cc(Nc2ncc(C(F)(F)F)cc2F)cnc1OCCO` [Compound I-087] yielded a pKi [1, 3] of 9.62 and a pKi [2] of 8.20.

In the case of `Cc1cnn(C)c1-c1cc(Nc2ncc(Cl)cc2F)ncc1OCCO` [Compound I-088], the pKi [1, 3] was 9.57 and the pKi [2] was 8.08.

`Cn1ncc(Br)c1-c1cc(Nc2ncc(F)cc2F)ncc1OCCO` [Compound I-089] gave a pKi [1, 3] of 9.39 and a pKi [2] of 8.52.

`Cn1ncc(Br)c1-c1cc(Nc2ccc(Cl)cn2)ccc1OCCO` [Compound I-090] showed a pKi [1, 3] of 9.69 and a pKi [2] of 9.24.

Compound `Cn1ncc(Br)c1-c1cc(Nc2ccc(C(F)F)cn2)ccc1OCCO` [Compound I-091] has a pKi [1, 3] of 9.71 and a pKi [2] of 8.05.

`Cn1ncc(Br)c1-c1cc(Nc2nc3ccc(F)cc3n2C)ccc1OCCO` [Compound I-092] showed a pKi [1, 3] of 9.56 and a pKi [2] of 8.56.

In the case of `Cn1ncc(Br)c1-c1cc(Nc2ccc(C3CCC3)cn2)ccc1OCCO` [Compound I-093], the pKi [1, 3] was 9.55 and the pKi [2] was 9.49.

Compound `Cn1ncc(Br)c1-c1cc(Nc2ccc(CC(F)(F)F)cn2)ccc1OCCO` [Compound I-094] has a pKi [1, 3] of 9.59 and a pKi [2] of 9.69.

With `Cn1cnc(Cl)c1-c1cc(Nc2ncc(C(F)(F)F)cc2F)ccc1OCCO` [Compound I-095] the pKi [1, 3] was 9.43 and the pKi [2] was 9.12.

`Cn1cnc(Br)c1-c1cc(Nc2ncc(Cl)cc2F)ccc1OCCO` [Compound I-096] showed a pKi [1, 3] of 9.47 and a pKi [2] of 8.78.

With `Cc1nc(C)c(-c2cc(Nc3ncc(C(F)(F)F)cc3F)ccc2OCCO)c(C)n1` [Compound I-097] the pKi [1, 3] was 9.29 and the pKi [2] was 8.87.

`Cc1nc(C)c(-c2cc(Nc3ncc(Cl)cc3F)ccc2OCCO)c(C)n1` [Compound I-098] showed a pKi [1, 3] of 9.25 and a pKi [2] of 8.50.

In the case of `Cn1ncc(C#N)c1-c1cc(Nc2ccc(C(F)(F)F)cn2)ccc1OCCO` [Compound I-099], the pKi [1, 3] was 9.65 and the pKi [2] was 8.15.

`Cc1ncnc(C)c1-c1cc(Nc2ccc(C(F)(F)F)cn2)ccc1OCCO` [Compound I-100] gave a pKi [1, 3] of 9.57 and a pKi [2] of 8.17.

`Cn1ncc(Br)c1-c1cc(Nc2nc3cc(F)ccc3n2C)ccc1OCCO` [Compound I-101] showed a pKi [1, 3] of 9.30 and a pKi [2] of 8.51.

`Cn1ncc(C#N)c1-c1cc(Nc2ccc(Cl)cn2)ccc1OCCO` [Compound I-102] was tested, and the pKi [1, 3] was 9.58 and the pKi [2] was 8.14.

In the case of `Cc1ncnc(C)c1-c1cc(Nc2ccc(Cl)cn2)ccc1OCCO` [Compound I-103], the pKi [1, 3] was 9.45 and the pKi [2] was 8.04.

`Cn1ncc(Br)c1-c1cc(Nc2nc(C3CC3)ns2)ccc1OCCO` [Compound I-104] showed a pKi [1, 3] of 9.41 and a pKi [2] of 8.21.

With `Cn1ncc(Br)c1-c1cc(Nc2ncc(C(F)(F)F)cn2)ccc1OCCO` [Compound I-105] the pKi [1, 3] was 9.50 and the pKi [2] was 9.22.

For `Cn1cnc(F)c1-c1cc(Nc2ncc(C(F)(F)F)cc2F)ccc1OCCO` [Compound I-106], the pKi [1, 3] was 9.39 and the pKi [2] was 8.14.

`Cc1cc(OCCO)c(-c2c(C#N)cnn2C)cc1Nc1ncc(C(F)(F)F)cc1F` [Compound I-107] showed a pKi [1, 3] of 8.78 and a pKi [2] of 7.00.

`Cn1ncc(C#N)c1-c1cc(Nc2ncc(C(F)(F)F)cc2F)c(Cl)cc1OCCO` [Compound I-109] showed a pKi [1] of 9.22 and a pKi [2] of 7.81.

`Cn1ncc(C#N)c1-c1cc(Nc2ncc(C(F)(F)F)cc2F)cc(F)c1OCCO` [Compound I-110] gave a pKi [1, 3] of 9.43 and a pKi [2] of 7.76.

`Cn1ncc(Br)c1-c1cc(Nc2nccc3cccnc23)ccc1OCCO` [Compound I-111] showed a pKi [1, 3] of 8.53 and a pKi [2] of 7.62.

With `Cn1ncc(Br)c1-c1cc(Nc2nccc3ccccc23)ccc1OCCO` [Compound I-112] the pKi [1, 3] was 9.56 and the pKi [2] was 7.59.

`Cn1ncc(Br)c1-c1cc(Nc2ncc(Cl)c3ccccc23)ccc1OCCO` [Compound I-113] showed a pKi [1, 3] of 9.53 and a pKi [2] of 8.51.

Work on `Cn1ncc(Br)c1-c1cc(Nc2nccn3c(Br)cnc23)ccc1OCCO` [Compound I-114] yielded a pKi [1, 3] of 8.81 and a pKi [2] of 8.33.

`Cn1ncc(Cl)c1-c1cc(Nc2ncc(C(F)(F)F)cc2F)ncc1OCCO` [Compound I-115] gave a pKi [1, 3] of 9.58 and a pKi [2] of 9.09.

For `Cn1ncc(Br)c1-c1cc(Nc2ccc(Cl)cn2)cnc1OCCO` [Compound I-116], the pKi [1, 3] was 9.49 and the pKi [2] was 9.13.

`Cn1ncc(Br)c1-c1cc(Nc2ncc(Cl)cc2F)cnc1OCCO` [Compound I-117] was tested, and the pKi [1, 3] was 9.62 and the pKi [2] was 9.52.

For `Cn1ncc(Br)c1-c1cc(Nc2nc3ccccc3s2)cnc1OCCO` [Compound I-118], the pKi [1, 3] was 9.58 and the pKi [2] was 9.22.

`Cn1ncc(Br)c1-c1cc(Nc2ncc(C3CC3)cn2)ccc1OCCO` [Compound I-120] showed a pKi [1, 3] of 9.04 and a pKi [2] of 8.41.
